Reference: patent publication US20050209336A1, “EP2 receptor agonists” (priority 2003, published 2005)
Like-named read-outs stand apart in the source and are kept apart here.

Legend:
human EP4 receptor = molecular target: T1, human EP4 receptor (Homo sapiens, UniProt P35408); experiment: Radioligand ([3H]PGE2) competition displacement binding, human EP4 receptor membranes; settings: [3H]PGE2 displacement, read-out: pKi EP4 (converted)
T1 construct: expressed in transfected cells
Protocol: (§1) Membranes were prepared from cells stably transfected with human EP receptor cDNA. In brief, cells were cultured to confluency, scraped from culture flasks, and centrifuged (800 g, 8 minutes, 4° C.). Cells were twice washed in ice cold homogenisation buffer containing 10 mMTris-HCl, 1 mM EDTA.2Na, 250 mM sucrose, 1 mM PMSF, 0.3 mM indomethacin, pH 7.4, homogenised and re-centrifuged as before. The supernatant was stored on ice and pellets re-homogenised and re-spun. Supernatants were pooled and centrifuged at 40000 g, 10 minutes, 4° C. Resultant membrane pellets were stored at −80° C. until use.
(§2) For assay, membranes expressing human EP4, EP3, EP2 or EP1 receptors were incubated in Millipore (MHVBN45) plates containing assay buffer, radiolabelled [^3H]PGE2 and 0.1 to 10 000 nM concentrations of compounds. Incubations were performed at suitable temperatures and for suitable times to allow equilibrium to be reached. Non-specific binding was determined in the presence of 10 uM PGE2. Bound and free radiolabel was separated by vacuum manifold filtration using appropriate wash buffers, and bound radiolabel was determined by scintillation counting. Constituents of each of the buffers are included in table 4 below.
(§3) The affinity or pKi of each compound for each receptor was calculated from the concentration causing 50% radioligand displacement (IC50) using the Cheng-Prusoff equation: [formula]
(§4) This approach follows that set out in Kenakin, T. P., Pharmacologic analysis of drug receptor interaction. Raven Press, New York, 2nd edition.

[1] = system: TNFα production by LPS-stimulated monocytes; experiment: Monocyte assay: LPS-induced TNFα secretion; format: cell-based; settings: Homo sapiens, inhibition of TNFα production, LPS 100 ng/ml, 24 h, mean of three donors
Text: Monocytes are peripheral mononuclear phagocytes that participate in inflammatory responses. TNFα production by monocytes plays an important role in inflammatory responses and can cause considerable tissue damage if the level remained unchecked. Inhibition of TNFα secretion by activated monocytes may provide an attractive therapy for the treatment of inflammatory conditions.
A 96 well in vitro assay was established to determine the effects of test compounds on LPS-induced TNFα secretion by human peripheral blood monocytes. The level of TNFα in assay supernatants was quantified using a standard sandwich ELISA.
Human peripheral blood mononuclear cells from healthy volunteers were isolated from whole blood by Ficoll-Hypaque density centrifugation and adherence to plastic. The non-adherent lymphocyte fraction was used to set up the lymphocyte assay and the adherent monocytes were then recovered by scraping and subsequently used in the monocyte assay.
For the monocyte assay, the cells were plated onto 96-well plates and pre-treated for 1 hour at 37° C./5% CO2 with the test compound (Peak 1, mixture 1 acid; Peak 1, mixture 2 acid; AH-13205 racemate), followed by the addition of LPS (100 ng/ml) to initiate the reaction. The plate was incubated for 24 hours and supernatants were recovered for the measurement of TNFα production by ELISA.

[2] = system: human myometrial smooth muscle; experiment: Human myometrial activity: inhibition of electrical field stimulation (EFS) induced contractions; format: cell-based; settings: for maximum inhibitory effect: inhibition of EFS-induced contractions / EC50: human myometrium strips; for effect on electrically-induced (EFS-evoked) contractions: human myometrium, 10^-6 to 10^-4 M (FIG. 6), 1x10^-7 to 1x10^-4 M; for EC50: inhibition of EFS-evoked response
Protocol: The following describes an in vitro functional assay, using human myometrial smooth muscle, to determine the affinity of the test compounds at the EP2 receptor in human tissues.
Sections of human myometrium were prepared from samples of surgically removed uterus longitudinal myometrial muscle strips (2 mm wide by 10 mm long) were then cut and suspended between stainless steel hooks in organ chambers containing oxygenated (95% O2/5% CO2) Krebs solution at 37° C. The composition of the Krebs solution was as follows: NaCl (118.2 mM), KCl (4.69 mM), MgSO4.7H2O (1.18 mM), KH2PO4 (1.19 mM), glucose (11.1 mM), NaHCO3 (25.0 mM), CaCl2.6H2O (2.5 mM), indomethacin 3×10^−6M.
Tissues were placed under a tension equivalent to 25 mN and left overnight at room temperature. The following day the tissues were maintained at 37° C., washed and placed under a tension of 15 mN then allowed to equilibrate for a period of at least 30 minutes. Responses were recorded using isometric transducers coupled to an Apple Macintosh computer via a MacLab interface. After 60 minutes, the muscle sections of the human myometrium were stimulated electrically (15 ms pulse width, for 10 s every 100 s at 15V and 0.5-40 Hz) using parallel platinum wire electrodes and a Multistim D330 pulse stimulator. Upon electrical stimulation, the strips of human myometrial smooth muscle responded with a rapid contraction. Once the response to electrical stimulation had stabilised (stimulated responses differed by no more than 10%), the strips were exposed to increasing concentrations of test compounds (1×10^−7 to 1×10^−4M, incubated for at least 15 minutes at each concentration). At the end of the experiment, application of sodium nitroprusside (SNP, a nitric oxide donor that causes smooth muscle relaxation) (1×10^−4M) was used to produce a standard relaxatory response. To determine the affinity of the compounds, the concentration of test compound required to produce half-maximal effects (EC50) was calculated, as was the maximum response (calculated as a percentage of the standard response produced with SNP).

human EP2 receptor = molecular target: T2, human EP2 receptor (Homo sapiens, UniProt P43116); experiment: Radioligand ([3H]PGE2) competition displacement binding, human EP2 receptor membranes; settings: for Ki: human EP2 membranes, [3H]PGE2 displacement, Cheng-Prusoff, mean of 4 experiments, read-out: pKi EP2 (converted)
T2 construct: expressed in transfected cells; host or cells: HEK cells (HEK-EP2)
Protocol: as §1, §2, §3, §4

human EP3 receptor = molecular target: T3, human EP3 receptor (Homo sapiens, UniProt P43115); experiment: Radioligand ([3H]PGE2) competition displacement binding, human EP3 receptor membranes; settings: [3H]PGE2 displacement, read-out: pKi EP3 (converted)
T3 construct: expressed in transfected cells
T3 sequence (P43115 1-390): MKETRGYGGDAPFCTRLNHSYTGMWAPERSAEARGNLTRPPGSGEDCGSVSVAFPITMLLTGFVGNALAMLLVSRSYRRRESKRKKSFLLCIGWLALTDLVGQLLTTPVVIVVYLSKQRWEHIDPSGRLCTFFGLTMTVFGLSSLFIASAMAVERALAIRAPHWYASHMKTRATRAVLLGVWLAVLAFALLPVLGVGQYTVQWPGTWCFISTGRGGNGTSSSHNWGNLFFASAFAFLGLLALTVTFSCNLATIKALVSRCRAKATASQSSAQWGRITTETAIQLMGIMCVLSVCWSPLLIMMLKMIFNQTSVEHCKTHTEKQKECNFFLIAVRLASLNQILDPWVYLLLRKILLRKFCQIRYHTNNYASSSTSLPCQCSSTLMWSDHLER
Protocol: as §1, §2, §3, §4

[3] = log scale, read-out: Mean Log (EC50) (converted)

T2 sequence (P43116 whole entry): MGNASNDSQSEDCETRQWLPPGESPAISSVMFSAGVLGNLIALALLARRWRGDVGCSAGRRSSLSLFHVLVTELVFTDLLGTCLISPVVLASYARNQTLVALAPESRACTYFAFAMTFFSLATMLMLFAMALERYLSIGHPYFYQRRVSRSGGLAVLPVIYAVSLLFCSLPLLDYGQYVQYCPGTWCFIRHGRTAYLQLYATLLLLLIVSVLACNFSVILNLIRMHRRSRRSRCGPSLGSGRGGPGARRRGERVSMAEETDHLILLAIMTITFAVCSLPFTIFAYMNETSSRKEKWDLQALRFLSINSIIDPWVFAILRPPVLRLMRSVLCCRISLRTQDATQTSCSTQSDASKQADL
T1 sequence (P35408 whole entry): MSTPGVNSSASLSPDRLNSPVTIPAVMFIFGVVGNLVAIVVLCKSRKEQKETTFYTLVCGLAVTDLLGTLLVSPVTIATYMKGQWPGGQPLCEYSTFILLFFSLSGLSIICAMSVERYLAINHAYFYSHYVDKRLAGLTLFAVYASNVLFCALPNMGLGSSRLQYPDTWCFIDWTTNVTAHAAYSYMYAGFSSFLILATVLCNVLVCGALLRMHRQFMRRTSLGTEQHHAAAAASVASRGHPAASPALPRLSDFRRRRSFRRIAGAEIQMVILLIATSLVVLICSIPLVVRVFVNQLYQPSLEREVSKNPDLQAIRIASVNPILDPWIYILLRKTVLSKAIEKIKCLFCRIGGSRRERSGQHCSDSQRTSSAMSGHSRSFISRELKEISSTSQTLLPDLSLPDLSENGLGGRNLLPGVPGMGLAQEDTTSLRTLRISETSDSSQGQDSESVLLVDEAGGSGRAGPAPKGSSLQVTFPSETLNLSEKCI

| Ki (human EP4 receptor) | EC50 ([1]; read-out: Mean EC50) | EC50 [1, 3] | EC50 [2] | Ki (human EP2 receptor) | Ki (human EP3 receptor) | selectivity for EP2 over other EP receptors (from table 5) (human EP2 receptor; comparison among the stereoisomers) | SMILES | maximum inhibitory effect: inhibition of EFS-induced contractions [2] | effect on electrically-induced (EFS-evoked) contractions [2] | effect on electrically-induced (EFS-evoked) contractions ([2]; listed as AH-13205) |
| --- | --- | --- | --- | --- | --- | --- | --- | --- | --- | --- |
| 25.1 µM | 19.8 µM | 19.8 µM | 5.01 µM | 0.398 µM | 6.31 µM | – | CCCCCC(O)c1ccc(C2CCC(=O)C2CCCCCCC(=O)O)cc1 (racemic) [AH13205, (±)-trans-2-[4-(1-hydroxyhexyl)phenyl]-5-oxo-cyclopentaneheptanoic acid, reference compound] | 49±5% | concentration-dependent inhibition | inhibit electrically-induced contractions |
| 10 µM | 1.78 µM | 1.78 µM | 1.26 µM | 0.0794 µM | 2 µM | – | CCCCC[C@H](O)c1ccc([C@H]2CCC(=O)[C@@H]2CCCCCCC(=O)O)cc1 (single isomer, unassigned) [Peak 1, Mixture 1 acid] | 56±5% | concentration-dependent inhibition | – |
| 7.94 µM | 6.73 µM | 6.73 µM | 5.01 µM | 0.126 µM | 15.8 µM | most selective | CCCCC[C@@H](O)c1ccc([C@H]2CCC(=O)[C@@H]2CCCCCCC(=O)O)cc1 (single isomer, unassigned) [Peak 1, Mixture 2 acid] | 57±2% | concentration-dependent inhibition | – |
